Data on 25 compounds can be found in patent US11312722B2, “Hsp90 inhibitors and uses thereof” (TRUSTEES OF BOSTON UNIVERSITY, priority 2019, dated 2022).

Read-outs that look alike come from different tables or passages of the source.

Test [1] addresses Hsp90 (C. albicans whole cell lysate) (Candida albicans (strain SC5314 / ATCC MYA-2876) (Yeast), UniProt P46598). Briefly: biochemical. Type of test: binding. The conditions noted are these: for C. alb Active (biochemical): Yes/No call. How it is done:
All analogs were assessed for Hsp90 binding affinity using a fluorescence polarization (FP)-based equilibrium competition assay in fungal and human whole cell lysates. […] Using lysates, the relative potency and selectivity for fungal Hsp90 was measured versus the entire ensemble of human Hsp90 isoforms in microplate format using small amounts of test materials. […] Thermal shift assays were performed under saturating ligand conditions, i.e. equimolar concentrations (10 μM) of protein and ligand. As a result, they provided qualitative evidence of target binding, but not a quantitative measurement of ligand affinity. For quantitation, a ligand dissociation constant (Ki) for key compounds was also determined using purified NBDs in FP assays and KD measurements were made by surface plasmon resonance (SPR) using a Biacore instrument. Finally, all analogs were assessed for whole cell antifungal activity against the pathogens C. albicans and C. neoformans.
FP assays. Whole cell lysates were prepared for FP assays as described previously. Total protein concentration of human and yeast lysates was determined by Bradford assay. […] Serial dilutions of test Hsp90 inhibitors were then assayed under these same conditions to monitor loss of fluorescence polarization as an indicator of probe displacement from Hsp90. […] Titrations of test compound in 25 μL of binding buffer (supplemented with 0.1 mg/mL bovine gamma globulin), were mixed with an equal volume of freshly prepared whole-cell lysate spiked with Cy3-GdA (0.1 nM). Plates were incubated at room temperature for 4.5 h to achieve equilibrium binding for the geldanamycin-based probe. […] Non-linear 4-parameter curve fitting of raw displacement data was performed in GraphPad Prism 5.0 to determine EC50 values as a measure of relative Hsp90-binding affinity. Results were normalized to the value determined for GdA in lysate of each cell type.
Statistical methods. […] In calculating the error of selectivity determinations, the fractional error of measurements in each species was summed to yield a composite error for the derived ratio.

Test [2] relates to C. neoformans (Strain H99). In words: Antifungal sensitivity testing (MIC), C. neoformans H99. Format: cell-based. The conditions noted are these: for MIC80 / MIC90: Cryptococcus neoformans; for MIC80: read-out: C. neo MIC80; for MIC90: read-out: C. neo MIC90. How it is done:
Color scale bar: no growth inhibition (green) to complete inhibition (black). Each shaded box represents the mean of technical duplicates. The experiment was repeated as an independent biological replicate to confirm results.
Minimum inhibitory concentration (MIC) value for compounds against C. neoformans (Strain H99) was determined in dose-response format, in technical duplicate. Experiments were conducted in RPMI medium at 37° C. for 48 h. Relative viable cell number was measured by standard dye reduction (resazurin) assay.
Yeast strains and culture conditions. Strains used in this study were C. albicans CaCi2 (clinical isolate 2), [58] SC5314, [59] and C. neoformans H99. […] Active cultures were maintained on solid (2% agar) yeast extract peptone (YPD, 1% yeast extract, 2% bactopeptone, 2% glucose) at 4° C. for no more than one month.
Antifungal sensitivity testing. […] Each compound was tested in duplicate in at least two independent experiments. […] Plates were photographed after 24 h of incubation at 30° C.

For the compound `COc1ccc(-c2cc(Nc3cc(O)cc(O)c3C(=O)N3Cc4cccnc4C3)n(C)n2)cc1` [Compound 122, 5-((3-(4-Methoxyphenyl)-1-methyl-1H-pyrazol-5-yl)amino)-4-(5H,6H,7H-pyrrolo[3,4-b]pyridine-6-carbonyl)benzene-1,3-diol], the “C. alb Active (biochemical)” value in test [1] is given as “Yes”. Further, in test [2], the MIC80 was greater than 25 µM and the MIC90 was greater than 25 µM.

As to `CC(C)(C)n1nc(-c2ccccc2)cc1Nc1cc(O)cc(O)c1C(=O)N1Cc2cccnc2C1` [Compound 94, 5-((1-tert-Butyl-3-phenyl-1H-pyrazol-5-yl)amino)-4-(5H,6H,7H-pyrrolo[3,4-b]pyridine-6-carbonyl)benzene-1,3-diol], the “C. alb Active (biochemical)” value in test [1] is reported as “Yes”. Besides, in test [2], the MIC80 is greater than 25 µM and the MIC90 was greater than 25 µM.

With `Cn1nc(-c2ccccc2)cc1Nc1cc(O)cc(O)c1C(=O)N1Cc2cccnc2C1` [Compound 92, 5-((1-Methyl-3-phenyl-1H-pyrazol-5-yl)amino)-4-(5H,6H,7H-pyrrolo[3,4-b]pyridine-6-carbonyl)benzene-1,3-diol], the “C. alb Active (biochemical)” value in test [1] is “Yes”. Also, in test [2], the MIC80 is greater than 25 µM and the MIC90 was greater than 25 µM.

`COc1ccccc1-c1cc(Nc2cc(O)cc(O)c2C(=O)N2CC[C@H](N)C2)n(C)n1` [ACSM01271]: in test [1], the “C. alb Active (biochemical)” value was “Yes”. Moreover, in test [1] (read-out: C. alb EC50), the EC50 was 5340 nM. Further, in test [2], the “C. neo MIC80” value was greater than 25 µM and the “C. neo MIC90” value was greater than 25 µM.

`Cc1ccc(-c2cc(Nc3cc(O)cc(O)c3C(=O)N3Cc4ccccc4C3)n(C)n2)cc1` [Compound 118, 4-(2,3-Dihydro-1H-isoindole-2-carbonyl)-5-((1-methyl-3-(4-methylphenyl)-1H-pyrazol-5-yl)amino)benzene-1,3-diol]: the “C. alb Active (biochemical)” value in test [1] is “Yes”. Also, in test [2], the MIC80 was greater than 25 µM and the MIC90 was greater than 25 µM.

`Cc1ccc(-c2cc(Nc3cc(O)cc(O)c3C(=O)N3Cc4cccnc4C3)n(C)n2)cc1` [Compound 119, 5-((1-Methyl-3-(4-methylphenyl)-1H-pyrazol-5-yl)amino)-4-(5H,6H,7H-pyrrolo[3,4-b]pyridine-6-carbonyl)benzene-1,3-diol]: the “C. alb Active (biochemical)” value in test [1] is “Yes”. Further, in test [2], the MIC80 is greater than 25 µM and the MIC90 is greater than 25 µM.

`Cc1cccc(-c2cc(Nc3cc(O)cc(O)c3C(=O)N3Cc4ccccc4C3)n(C)n2)c1C` [ACSM01272]: the “C. alb Active (biochemical)” value in test [1] is recorded as “Yes”. In addition, the EC50 in test [1] (read-out: C. alb EC50) stood at 6200 nM.

Regarding `COc1ccc(Cn2nc(C)cc2Nc2cc(O)cc(O)c2C(=O)N(C)Cc2ccccc2)cc1` [Compound 37, N-Benzyl-2,4-dihydroxy-6-((1-((4-methoxyphenyl)methyl)-3-methyl-1H-pyrazol-5-yl)amino)-N-methylbenzamide], the 50% effective concentration (EC50) in test [1] (FP competition, whole cell lysate, duplicate, screening experiment, read-out: C. albicans EC50) was greater than 6000 nM.

Take `Cc1cccc(-c2cc(Nc3cc(O)cc(O)c3C(=O)N3Cc4cccnc4C3)n(C)n2)c1` [Compound 110, 5-((1-Methyl-3-(3-methylphenyl)-1H-pyrazol-5-yl)amino)-4-(5H,6H,7H-pyrrolo[3,4-b]pyridine-6-carbonyl)benzene-1,3-diol]: the “C. alb Active (biochemical)” value in test [1] was “Yes”. Besides, in test [2], the MIC80 was greater than 25 µM and the MIC90 was greater than 25 µM.

Turning to `Cc1ccc(F)c(-c2cc(Nc3cc(O)cc(O)c3C(=O)N3Cc4ccccc4C3)n(C)n2)c1` [ACSM01268], the “C. alb Active (biochemical)” value in test [1] is given as “Yes”. In test [1] (read-out: C. alb EC50), the EC50 turned out to be 1680 nM.

For `Cc1ccc(-c2cc(Nc3cc(O)cc(O)c3C(=O)N3Cc4cn[nH]c4C3)n(C)n2)cc1` [Compound 120, 5-((1-Methyl-3-(4-methylphenyl)-1H-pyrazol-5-yl)amino)-4-(1H,4H,5H,6H-pyrrolo[3,4-c]pyrazole-5-carbonyl)benzene-1,3-diol], the “C. alb Active (biochemical)” value in test [1] is “Yes”. Also, in test [2], the MIC80 was greater than 25 µM and the MIC90 is greater than 25 µM.

Take `Cn1nc(-c2cccc(F)c2)cc1Nc1cc(O)cc(O)c1C(=O)N1Cc2ccccc2C1` [ACSM01345]: the “C. alb Active (biochemical)” value in test [1] is reported as “Yes”. Besides, the EC50 in test [1] (read-out: C. alb EC50) was found to be 1250 nM.

Regarding `CC(C)(C)n1nc(-c2ccccc2)cc1Nc1cc(O)cc(O)c1C(=O)N1Cc2cn[nH]c2C1` [Compound 95, 5-((1-tert-Butyl-3-phenyl-1H-pyrazol-5-yl)amino)-4-(1H,4H,5H,6H-pyrrolo[3,4-c]pyrazole-5-carbonyl)benzene-1,3-diol], the “C. alb Active (biochemical)” value in test [1] is “Yes”. In test [2], the MIC80 was greater than 25 µM and the MIC90 is greater than 25 µM.

With `COc1ccc(-c2cc(Nc3cc(O)cc(O)c3C(=O)N3Cc4cn[nH]c4C3)n(C)n2)cc1` [Compound 123, 5-((3-(4-Methoxyphenyl)-1-methyl-1H-pyrazol-5-yl)amino)-4-(1H,4H,5H,6H-pyrrolo[3,4-c]pyrazole-5-carbonyl)benzene-1,3-diol], the “C. alb Active (biochemical)” value in test [1] is on record as “Yes”. For the same compound, in test [2], the MIC80 was greater than 25 µM and the MIC90 is greater than 25 µM.

In the case of `Cn1nc(-c2ccccc2)cc1Nc1cc(O)cc(O)c1C(=O)N1Cc2cn[nH]c2C1` [Compound 93, 5-((1-Methyl-3-phenyl-1H-pyrazol-5-yl)amino)-4-(1H,4H,5H,6H-pyrrolo[3,4-c]pyrazole-5-carbonyl)benzene-1,3-diol], the “C. alb Active (biochemical)” value in test [1] was “Yes”. For the same compound, in test [2], the MIC80 is greater than 25 µM and the MIC90 is greater than 25 µM.

With `Cn1nccc1Nc1cc(O)cc(O)c1C(=O)N1Cc2cn[nH]c2C1` [Compound 58, 5-((1-Methyl-1H-pyrazol-5-yl)amino)-4-(1H,4H,5H,6H-pyrrolo[3,4-c]pyrazole-5-carbonyl)benzene-1,3-diol], in test [1], the “C. alb Active (biochemical)” value is reported as “Yes”. In addition, in test [2], the MIC80 is greater than 25 µM and the MIC90 was greater than 25 µM.

`COc1cccc(-c2cc(Nc3cc(O)cc(O)c3C(=O)N3Cc4cccc(F)c4C3)n(C)n2)c1` [ACSM01130]: in test [1], the “C. alb Active (biochemical)” value is listed as “Yes”. Besides, the EC50 in test [1] (read-out: C. alb EC50) was 5820 nM. Further, in test [2], the “C. neo MIC80” value was greater than 50 µM and the “C. neo MIC90” value was greater than 50 µM.

With `Cc1ccccc1-c1cc(Nc2cc(O)cc(O)c2C(=O)N2Cc3ccc(F)cc3C2)n(C)n1` [ACSM01135], the “C. alb Active (biochemical)” value in test [1] was “Yes”. The EC50 in test [1] (read-out: C. alb EC50) is 904 nM.

On to `Cn1nc(-c2cccc(C(F)(F)F)c2)cc1Nc1cc(O)cc(O)c1C(=O)N1Cc2cccnc2C1` [Compound 116, 5-((1-Methyl-3-(3-(trifluoromethyl)phenyl)-1H-pyrazol-5-yl)amino)-4-(5H,6H,7H-pyrrolo[3,4-b]pyridine-6-carbonyl)benzene-1,3-diol], for which the “C. alb Active (biochemical)” value in test [1] is reported as “Yes”. Further, in test [2], the MIC80 is greater than 25 µM and the MIC90 is greater than 25 µM.

For the compound `Cn1nc(-c2cccc(C(F)(F)F)c2)cc1Nc1cc(O)cc(O)c1C(=O)N1Cc2cn[nH]c2C1` [Compound 117, 5-((1-Methyl-3-(3-(trifluoromethyl)phenyl)-1H-pyrazol-5-yl)amino)-4-(1H,4H,5H,6H-pyrrolo[3,4-c]pyrazole-5-carbonyl)benzene-1,3-diol], in test [1], the “C. alb Active (biochemical)” value was “Yes”. For the same compound, in test [2], the MIC80 is greater than 25 µM and the MIC90 was greater than 25 µM.

Take `Cn1nc(-c2cc(F)ccc2F)cc1Nc1cc(O)cc(O)c1C(=O)N1Cc2ccccc2C1` [ACSM01270]: in test [1], the “C. alb Active (biochemical)” value is recorded as “Yes”. Further, the EC50 in test [1] (read-out: C. alb EC50) was 1120 nM.

Consider `Cn1nc(-c2cccc(Cl)c2)cc1Nc1cc(O)cc(O)c1C(=O)N1Cc2ccccc2C1` [ACSM01362], for which the “C. alb Active (biochemical)” value in test [1] is given as “Yes”. In addition, the EC50 in test [1] (read-out: C. alb EC50) worked out at 4170 nM.

As for `COc1ccc(-c2cc(Nc3cc(O)cc(O)c3C(=O)N3Cc4ccccc4C3)n(C)n2)cc1` [Compound 121, 4-(2,3-Dihydro-1H-isoindole-2-carbonyl)-5-((3-(4-methoxyphenyl)-1-methyl-1H-pyrazol-5-yl)amino)benzene-1,3-diol], in test [2], the MIC80 was greater than 25 µM and the MIC90 was greater than 25 µM. Also, the “C. neo Active (cells)” value in test [2] (Yes/No call) is listed as “No”.

`Cn1nc(-c2cccc(F)c2F)cc1Nc1cc(O)cc(O)c1C(=O)N1Cc2ccccc2C1` [ACSM01269]: the “C. alb Active (biochemical)” value in test [1] is given as “Yes”. Besides, the EC50 in test [1] (read-out: C. alb EC50) worked out at 2210 nM.

As for `Cc1cccc(-c2cc(Nc3cc(O)cc(O)c3C(=O)N3Cc4ccccc4C3)n(C)n2)c1F` [ACSM01273], in test [1], the “C. alb Active (biochemical)” value is “Yes”.

Usually MIC80 stands for an inhibitory concentration at the 80% level, which refers to growth in some studies and to a panel of isolates in others. As usually defined, the MIC90 is an inhibitory concentration at the 90% level, which refers to growth in some studies and to a panel of isolates in others. The term EC50 denotes the concentration giving half of the maximal effect.
